Measurements published in patent publication US8383666B2, “Pyrrole derivatives, preparation of same and therapeutic application thereof” (Sanofi, priority 2008, dated 2013).

What was measured:
[1] = target: T1, CB1 receptors present in the brain (Mus musculus, UniProt P47746); assay: Measurement (3): blocking of the hypothermic effect induced by CP55940; assay type: in vivo; set-up: [CB1 receptors present; from tissue; host or cells: living animal, brain CB1 receptors; details: iv at 10 mg/kg
Source text: (§1) Preferably, this percentage is less than 40%, and more preferably less than 30%.

[2] = target: T1, CB1 receptors present in the brain; assay: Measurement (2): ex vivo binding of [3H]-CP55940 in the brain after intravenous administration; set-up: the CB1 receptors present in the brain in mice; from tissue; host or cells: mouse brain (after intravenous dosing); details: iv at 10 mg/kg, mice, read-out: % inhibition of [3H]-CP55940 binding at the level of the brain
Source text: as §1

[3] = Measurement (1): quantification of compound in brain and plasma by LC-MS/MS; assay type: in vivo; details: iv at 3 mg/kg, according to measurement (1), mouse, read-out: Ratio: Amount present in the brain/Amount present in the plasma
Source text: as §1

[4] = target: T2, CB1 receptors present at the periphery (Mus musculus, UniProt P47746); assay: blocking of the inhibitory effect of CP55940 on gastrointestinal transit; assay type: in vivo; details: per os at 10 mg/kg, mice
T2 construct: from tissue; host or cells: living mouse, peripheral (gastrointestinal) CB1 receptors
T2 sequence (P47746 whole entry): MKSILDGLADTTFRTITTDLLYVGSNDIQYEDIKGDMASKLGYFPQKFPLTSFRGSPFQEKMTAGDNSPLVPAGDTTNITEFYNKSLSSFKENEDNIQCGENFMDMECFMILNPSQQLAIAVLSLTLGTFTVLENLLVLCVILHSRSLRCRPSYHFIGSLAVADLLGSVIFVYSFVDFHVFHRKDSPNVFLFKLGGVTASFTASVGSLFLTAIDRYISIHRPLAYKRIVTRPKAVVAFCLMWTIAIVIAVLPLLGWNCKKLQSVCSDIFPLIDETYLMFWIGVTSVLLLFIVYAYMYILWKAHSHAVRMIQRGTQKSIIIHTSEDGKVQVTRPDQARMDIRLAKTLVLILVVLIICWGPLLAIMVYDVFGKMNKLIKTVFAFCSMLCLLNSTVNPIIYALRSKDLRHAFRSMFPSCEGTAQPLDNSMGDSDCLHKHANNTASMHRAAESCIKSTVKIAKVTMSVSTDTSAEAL

T1 sequence (P47746 whole entry): as above

Cn1c(C(=O)N2CCC(NCc3cccc(F)c3)(C(N)=O)CC2)cc(-c2ccc(Cl)cc2Cl)c1-c1ccc(OCCCO)cc1 [Compound 11, 1-[4-(2,4-dichlorophenyl)-5-[4-(3-hydroxypropoxy)phenyl]-1-methyl-1H-pyrrole-2-carbonyl]-4-(3-fluorobenzylamino)piperidine-4-carboxamide]
% reversion of the hypothermic effect of CP55940 [1]: 64%
inhibition at 10 mg/kg [2]: 25%

Cn1c(C(=O)N2CCC(C(N)=O)(c3ccccc3)CC2)cc(-c2ccc(Cl)cc2Cl)c1-c1ccc(OCC(N)=O)cc1 [Compound 16, 1-[5-(4-carbamoylmethoxy)phenyl-4-(2,4-dichlorophenyl)-1-methyl-1H-pyrrole-2-carbonyl]-4-phenylpiperidine-4-carboxamide]
Kp [3]: 0.05
% reversion of the effect of CP55940 on GI transit [4]: 76%
% reversion of the hypothermic effect of CP55940 [1]: 3%
inhibition at 10 mg/kg [2]: 8%

Cn1c(C(=O)N2CCC(NCc3ccc(F)cc3)(C(N)=O)CC2)cc(-c2ccccc2Cl)c1-c1ccc(OCCCO)cc1 [Compound 24, 1-[4-(2-chlorophenyl)-5-[4-(3-hydroxypropoxy)phenyl]-1-methyl-1H-pyrrole-2-carbonyl]-4-(4-fluorobenzylamino)piperidine-4-carboxamide]
% reversion of the effect of CP55940 on GI transit [4]: 100%
% reversion of the hypothermic effect of CP55940 [1]: 20%
inhibition at 10 mg/kg [2]: 1%
